Results as given in ChEMBL document CHEMBL4312017, “Synthesis and discovery of new compounds bearing coumarin scaffold for the treatment of pulmonary fibrosis” (Eur J Med Chem, 2020).
Calls of active or inactive are those of the source. The calls are words filed in the database; no cut-off is given here.

Experiments:
NRK-49F [1] = assay: Inhibition of TGF-beta-induced collagen accumulation in rat NRK-49F cells at 10 uM incubated for 2 days by PSR staining based microscopic analysis relative to control; type: functional; settings: 48 h
[2] = Cytotoxicity against rat NRK-49F cells assessed as cell viability at 10 uM incubated for 72 hrs by MTT assay; type: cell-based; settings: read-out: Activity
NRK-49F [3] = assay: Inhibition of TGF-beta-induced collagen accumulation in rat NRK-49F cells incubated for 2 days by PSR staining based microscopic analysis; type: functional, cell-based; settings: for IC50: 48 h
NIH3T3 = assay: Inhibition of TGF-beta-induced […] migration in mouse NIH/3T3 cells at 1 uM incubated for 24 hrs by Transwell assay; type: functional, cell-based
[4] = Oral bioavailability in Sprague-Dawley rat 10 mg/kg measured upto 24 hrs; type: ADME, organism-based; settings: in vivo
Mus musculus [5] = assay: Antifibrotic activity against C57BL/6 mouse pulmonary fibrosis model assessed as reduction in bleomycin-iduced hydroxyproline level at 50 mg/kg, po administered for 28 days and measured on day 14 and 28 by spectrophotometry; type: functional, organism-based
Mus musculus [6] = assay: Antifibrotic activity against BLM-induced C57BL/6 mouse pulmonary fibrosis model assessed as decrease in bronchiolar epithelial cell shedding at 50 mg/kg, po administered for 28 days and measured on day 14 and 28 by HE staining based fluorescence microscopy; type: functional, organism-based
Mus musculus [7] = assay: Antifibrotic activity against BLM-induced C57BL/6 mouse pulmonary fibrosis model assessed as decrease in bronchioles inflammatory cell infiltration at 50 mg/kg, po administered for 28 days and measured on day 14 and 28 by HE staining based fluorescence microscopy; type: functional, organism-based
Mus musculus [8] = assay: Antifibrotic activity against BLM-induced C57BL/6 mouse pulmonary fibrosis model assessed as decrease in perivascular inflammatory cell infiltration at 50 mg/kg, po administered for 28 days and measured on day 14 and 28 by HE staining based fluorescence microscopy; type: functional, organism-based
Mus musculus [9] = assay: Antifibrotic activity against BLM-induced C57BL/6 mouse pulmonary fibrosis model assessed as decrease in bronchial epithelial vacuolar degeneration at 50 mg/kg, po administered for 28 days and measured on day 14 and 28 by HE staining based fluorescence microscopy; type: functional, organism-based
Mus musculus [10] = assay: Antifibrotic activity against BLM-induced C57BL/6 mouse pulmonary fibrosis model assessed as reduction in total white blood cells in BALF at 50 mg/kg, po administered for 28 days and measured on day 28; type: functional, organism-based
Mus musculus [11] = assay: Antifibrotic activity against BLM-induced C57BL/6 mouse pulmonary fibrosis model assessed as reduction in neutrophils in BALF at 50 mg/kg, po administered for 28 days and measured on day 28; type: functional, organism-based
Mus musculus [12] = assay: Antifibrotic activity against BLM-induced C57BL/6 mouse pulmonary fibrosis model assessed as reduction in lymphocytes in BALF at 50 mg/kg, po administered for 28 days and measured on day 28; type: functional, organism-based
Mus musculus [13] = assay: Antifibrotic activity against BLM-induced C57BL/6 mouse pulmonary fibrosis model assessed as increase in time for reduction of alveoli at 50 mg/kg, po administered for 28 days and measured on day 14 and 28 by HE staining based fluorescence microscopy; type: functional, organism-based
Mus musculus [14] = assay: Antifibrotic activity against BLM-induced C57BL/6 mouse pulmonary fibrosis model assessed as decrease in destruction alveolar structure at 50 mg/kg, po administered for 28 days and measured on day 14 and 28 by HE staining based fluorescence microscopy; type: functional, organism-based

Row | SMILES | inhibition at 10 µM (NRK-49F [1]) [%] | viability at 72 h, 10 µM [2] [%] | also measured
1 | COc1ccc2c(Nc3ccc(NC(=O)CN4CCCC4)cc3)cc(=O)oc2c1 | 15.7 | 52 | –
2 | O=C(CN1CCOCC1)Nc1ccc(Oc2cc(=O)oc3ccccc23)cc1 | 34.6 | 97 | –
3 | CN1CCN(CC(=O)Nc2ccc(Nc3cc(=O)oc4ccccc34)cc2F)CC1 | 36.8 | 78.1 | –
4 | COc1ccc2c(Nc3ccc(NC(=O)CN4CCCCC4)cc3)cc(=O)oc2c1 | 74.5 | 41.3 | –
5 | COc1ccc2c(Nc3ccc(NC(=O)CN4CCN(C)CC4)cc3)cc(=O)oc2c1 | 80.2 | 87.2 | inhibition (NRK-49F [3]): Dose-dependent effect; IC50 (NRK-49F [3]): 4.35 µM; inhibition (NIH3T3): Active
6 | CN1CCN(CC(=O)Nc2ccc(Oc3cc(=O)oc4ccccc34)cc2)CC1 | 24 | 83.6 | –
7 | CN1CCN(CC(=O)Nc2ccc(Nc3cc(=O)oc4ccc([N+](=O)[O-])cc34)cc2)CC1 | 22.3 | 32.1 | –
8 | COc1ccc2c(Nc3ccc(NC(=O)CN4CCOCC4)cc3)cc(=O)oc2c1 | 72.9 | 89.1 | –
9 | COc1ccc2c(Oc3ccc(NC(=O)CN4CCCCC4)cc3)cc(=O)oc2c1 | 73.5 | 90.4 | –
10 | COc1ccc2c(Oc3ccc(NC(=O)CN4CCN(C)CC4)cc3)cc(=O)oc2c1 | 65.4 | 95.6 | –
11 | O=C(CN1CCCCC1)Nc1ccc(Nc2cc(=O)oc3ccccc23)cc1 | 75.2 | 43.6 | –
12 | CN1CCN(CC(=O)Nc2ccc(Nc3cc(=O)oc4ccccc34)cc2)CC1 | 26.8 | 87.5 | –
13 | O=C(CN1CCCC1)Nc1ccc(Nc2cc(=O)oc3ccccc23)cc1 | 12.4 | 62 | –
14 | O=C(CN1CCOCC1)Nc1ccc(Nc2cc(=O)oc3ccccc23)cc1 | 41.8 | 75.2 | –
15 | C[C@H]1CCCN(CC(=O)Nc2ccc(Nc3cc(=O)oc4ccccc34)cc2)C1 | 80.2 | 91.5 | inhibition (NRK-49F [3]): Dose-dependent effect; IC50 (NRK-49F [3]): 3.96 µM; inhibition (NIH3T3): Active
16 | C[C@H]1CCCN(CC(=O)Nc2ccc(Nc3cc(=O)oc4ccccc34)cc2F)C1 | 21.9 | 88.5 | –
17 | COc1ccc2c(Oc3ccc(NC(=O)CN4CCOCC4)cc3)cc(=O)oc2c1 | 78.3 | 96.5 | inhibition (NRK-49F [3]): Dose-dependent effect; IC50 (NRK-49F [3]): 3.71 µM; inhibition (NIH3T3): Active
18 | COc1ccc2c(Nc3ccc(NC(=O)CN4CCC[C@H](C)C4)cc3)cc(=O)oc2c1 | 72.7 | 90.1 | –
19 | O=C(CN1CCOCC1)Nc1ccc(Nc2cc(=O)oc3ccccc23)cc1F | 34.5 | 72.3 | –
20 | C[C@H]1CCCN(CC(=O)Nc2ccc(Nc3cc(=O)oc4ccc([N+](=O)[O-])cc34)cc2)C1 | 28.7 | 17.8 | –
21 | COc1ccc2c(Oc3ccc(NC(=O)CN4CCCC4)cc3)cc(=O)oc2c1 | 8.07 | 93.3 | –
22 | COc1ccc2c(Oc3ccc(NC(=O)CN4CCC[C@H](C)C4)cc3)cc(=O)oc2c1 | 32.6 | 90.5 | –
23 | COC(=O)c1ccc2c(c1)NC(=O)/C2=C(\Nc1ccc(N(C)C(=O)CN2CCN(C)CC2)cc1)c1ccccc1 [NINTEDANIB] | 95.5 | 40 | IC50 (NRK-49F [3]): 1.1 µM; bioavailability [4]: 12%; Activity (Mus musculus [5]): inactive; Activity (Mus musculus [6]): Active; Activity (Mus musculus [7]): Active; Activity (Mus musculus [8]): Active; Activity (Mus musculus [9]): Active; Activity (Mus musculus [10]): Active; Activity (Mus musculus [11]): Active; Activity (Mus musculus [12]): Active; Activity (Mus musculus [13]): Active; Activity (Mus musculus [14]): Active
24 | C[C@H]1CCCN(CC(=O)Nc2ccc(Oc3cc(=O)oc4ccccc34)cc2)C1 | 75.3 | 98 | –
25 | O=C(CN1CCCC1)Nc1ccc(Nc2cc(=O)oc3ccc([N+](=O)[O-])cc23)cc1 | 17.9 | 45.3 | –
26 | O=C(CN1CCCCC1)Nc1ccc(Nc2cc(=O)oc3ccccc23)cc1F | 11.3 | 67.7 | –
27 | O=C(CN1CCCCC1)Nc1ccc(Nc2cc(=O)oc3ccc([N+](=O)[O-])cc23)cc1 | 15.4 | 20.3 | –
28 | O=C(CN1CCCC1)Nc1ccc(Nc2cc(=O)oc3ccccc23)cc1F | 33.3 | 74.3 | –
29 | O=C(CN1CCCC1)Nc1ccc(Oc2cc(=O)oc3ccccc23)cc1 | 18.8 | 82.9 | –
30 | O=C(CN1CCOCC1)Nc1ccc(Nc2cc(=O)oc3ccc([N+](=O)[O-])cc23)cc1 | 31.7 | 23.1 | –
